Results from ChEMBL document CHEMBL1201862, “PubChem BioAssay data set” (2004).
Activity calls are given as the source filed them.

Legend:
[1] = target: Hepatocyte nuclear factor 4-alpha (Homo sapiens, UniProt P41235); format: functional, cell-based;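 further: biochemical luminescence-based dose-response counterscreen measuring inhibition of HNF4 dimerization, run alongside a screen for blockers of ABHD5–perilipin-5 interaction; split luciferase complementation of HNF4 fusion proteins in cell lysate measuring dimerization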
[2] = target: Melanocortin receptor 4 (Homo sapiens, UniProt P32245); assay: MC4R antagonist potency on cAMP, dose response, cell-based, TR-FRET, biased antagonists (AID 602298); format: functional;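 further: antagonist potency against agonist-stimulated cAMP production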
[3] = target: T1, Corticotropin-releasing factor receptor 2/Corticotropin-releasing factor-binding protein (Homo sapiens, UniProt P24387+Q13324); assay: Dose Response confirmation of uHTS hits for small molecule antagonists of the CRF-binding protein and CRF-R2 receptor complex.; format: functional; conditions: read-out: IC50_Mean
T1 sequence (Q13324 whole entry): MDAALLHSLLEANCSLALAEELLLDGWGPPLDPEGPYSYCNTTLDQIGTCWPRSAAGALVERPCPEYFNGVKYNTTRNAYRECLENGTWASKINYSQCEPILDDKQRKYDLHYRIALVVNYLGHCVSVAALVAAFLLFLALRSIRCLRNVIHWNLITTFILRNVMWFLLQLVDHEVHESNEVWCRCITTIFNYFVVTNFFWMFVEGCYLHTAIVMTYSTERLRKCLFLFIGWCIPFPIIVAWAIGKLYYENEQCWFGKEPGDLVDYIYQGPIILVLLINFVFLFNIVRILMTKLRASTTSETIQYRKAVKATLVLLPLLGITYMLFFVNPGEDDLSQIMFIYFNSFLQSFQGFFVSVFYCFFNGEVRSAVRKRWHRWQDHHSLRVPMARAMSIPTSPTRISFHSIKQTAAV
T1 sequence (P24387 whole entry): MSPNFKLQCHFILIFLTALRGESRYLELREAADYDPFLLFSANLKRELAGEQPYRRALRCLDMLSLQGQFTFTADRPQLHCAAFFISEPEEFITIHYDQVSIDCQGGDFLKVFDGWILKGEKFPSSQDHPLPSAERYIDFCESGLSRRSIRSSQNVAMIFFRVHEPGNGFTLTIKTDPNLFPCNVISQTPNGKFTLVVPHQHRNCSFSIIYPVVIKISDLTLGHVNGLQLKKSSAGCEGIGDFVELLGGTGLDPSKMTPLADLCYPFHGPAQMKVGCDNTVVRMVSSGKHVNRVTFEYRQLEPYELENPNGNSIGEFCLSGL

[4] = target: T1, Corticotropin-releasing factor receptor 2/Corticotropin-releasing factor-binding protein; assay: activators of CRF receptor 2 with binding protein – uHTS hits, confirmation (AID 602473); format: functional; conditions: read-out: EC50_Mean
[5] = nonselective inhibitors of cellular cAMP signaling, dose response, counter-screen for MC4R biased antagonist project, cell-based, TR-FRET cAMP detection (AID 602305); format: functional;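 further: U2OS cells stimulated with forskolin near its EC80 as the cAMP inducer; potency is for inhibition of forskolin-stimulated cAMP signaling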
[6] = CRF-BP/CRF-R2 complex antagonists, dose response, cell-based, uHTS hits, 384-well (AID 651639); format: functional, Homo sapiens; conditions: read-out: IC50_Mean
[7] = cells; format: functional, cell-based
[8] = target: T2, Nuclear receptor subfamily 0 group B member 1 (Homo sapiens, UniProt P51843); format: functional, cell-based;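 further: HEK293T cells transfected with SF-1 and DAX-1 plus StAR promoter luciferase reporter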
T2 sequence (P51843 whole entry): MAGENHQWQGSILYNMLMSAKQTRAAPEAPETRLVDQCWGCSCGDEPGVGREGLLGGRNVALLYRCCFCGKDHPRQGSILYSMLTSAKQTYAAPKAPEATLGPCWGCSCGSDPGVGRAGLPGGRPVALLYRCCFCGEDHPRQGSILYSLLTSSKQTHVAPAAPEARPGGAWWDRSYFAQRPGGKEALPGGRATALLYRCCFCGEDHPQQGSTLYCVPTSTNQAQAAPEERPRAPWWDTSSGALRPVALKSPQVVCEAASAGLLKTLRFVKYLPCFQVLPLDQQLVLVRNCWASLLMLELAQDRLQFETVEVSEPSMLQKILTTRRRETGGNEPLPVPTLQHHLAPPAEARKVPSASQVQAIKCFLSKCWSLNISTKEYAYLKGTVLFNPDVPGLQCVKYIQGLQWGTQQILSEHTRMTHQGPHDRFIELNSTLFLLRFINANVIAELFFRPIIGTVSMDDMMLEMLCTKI

[9] = target: Galanin receptor type 3 (Homo sapiens, UniProt O60755); assay: Fluorescence-based cell-based primary high throughput dose response assay to identify antagonists of the Galanin Receptor 3 (GalR3).; format: functional
[10] = cells; format: functional, cell-based; conditions: HEK-CNG
[11] = Late stage assay provider results from the probe development effort to identify selective inhibitors of heat shock protein 90 (HSP90): Absorbance-based cell proliferation assay in SKBR3 cells.; format: functional; conditions: SK-BR-3
[12] = Late stage assay provider results from the probe development effort to identify selective inhibitors of heat shock protein 90 (HSP90): Absorbance-based cell proliferation assay in MCF7 cells.; format: functional
[13] = target: Paired box protein Pax-8 (Homo sapiens, UniProt Q06710); assay: inhibitors of PAX8-driven TPO luciferase reporter, dose response, RMG-I cells, cherry-pick (AID 687027); format: functional, cell-based;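 further: luciferase reporter driven by Pax8 target thyroperoxidase promoter measured by SteadyGlo luminescence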
[14] = IOSE-T80 ovarian epithelial cell cytotoxicity, dose response, cytotoxicity control for PAX8 inhibitor project, plate reader, dry powder samples (AID 743045); format: functional, cell-based
[15] = A2780 ovarian cancer cell cytotoxicity, dose response, cytotoxicity control, plate reader, dry powder samples (AID 743046); format: functional, cell-based
[16] = NIH:OVCAR-3 ovarian cancer cell cytotoxicity, dose response, PAX8 inhibitor project, plate reader, dry powder samples (AID 743044); format: functional, cell-based
[17] = IGROV1 ovarian cancer cell cytotoxicity, dose response, PAX8 inhibitor project, plate reader, dry powder samples (AID 743043); format: functional, cell-based; conditions: IGROV-1
[18] = cytotoxicity in OVCAR8 ovarian cancer cells, dose response, PAX8 project, cell-based, plate reader, dry powder samples (AID 743197); format: functional; conditions: OVCAR-8
[19] = THP-1 cell cytotoxicity, dose response, cytotoxicity control for non-replicating M. tuberculosis project (AID 489025); format: functional
[20] = cells; format: functional
[21] = human group III sPLA2 inhibitors, dose response, biochemical, QFRET, IC50 (AID 743457);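 further: green fluorescence rise as the enzyme cleaves BODIPY PC-A2 in liposomes; potency for inhibition of the enzyme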
[22] = target: DNA dC->dU-editing enzyme APOBEC-3A (Homo sapiens, UniProt P31941); assay: APOBEC3A DNA deaminase inhibitors, dose response, biochemical (AID 504722); format: functional
[23] = target: DNA dC->dU-editing enzyme APOBEC-3G (Homo sapiens, UniProt Q9HC16); assay: Dose Response confirmation of small molecule APOBEC3G DNA Deaminase Inhibitors via a fluorescence-based single-stranded DNA deaminase assay. [Related pubchem assays (depositor defined):AID493012, AID493028]; format: functional
[24] = target: T3, Small ubiquitin-related modifier 1 (Homo sapiens, UniProt P63165); assay: inhibitors of SUMO1 peptide binding, dose response, biochemical, fluorescence polarization, uHTS hits (AID 624382); format: functional; conditions: read-out: IC50_Mean
[25] = target: T3, Small ubiquitin-related modifier 1; assay: inhibitors of SUMO1 partner interactions, dose response, biochemical, FRET (AID 624383); format: functional; conditions: read-out: IC50_Mean
[26] = target: T4, Replicative DNA helicase DnaB (Mycobacterium tuberculosis, UniProt P9WMR3); assay: DnaB intein splicing inhibitors, dose response, biochemical, cell-free fluorescence (AID 449749); format: functional
T4 sequence (P9WMR3 whole entry): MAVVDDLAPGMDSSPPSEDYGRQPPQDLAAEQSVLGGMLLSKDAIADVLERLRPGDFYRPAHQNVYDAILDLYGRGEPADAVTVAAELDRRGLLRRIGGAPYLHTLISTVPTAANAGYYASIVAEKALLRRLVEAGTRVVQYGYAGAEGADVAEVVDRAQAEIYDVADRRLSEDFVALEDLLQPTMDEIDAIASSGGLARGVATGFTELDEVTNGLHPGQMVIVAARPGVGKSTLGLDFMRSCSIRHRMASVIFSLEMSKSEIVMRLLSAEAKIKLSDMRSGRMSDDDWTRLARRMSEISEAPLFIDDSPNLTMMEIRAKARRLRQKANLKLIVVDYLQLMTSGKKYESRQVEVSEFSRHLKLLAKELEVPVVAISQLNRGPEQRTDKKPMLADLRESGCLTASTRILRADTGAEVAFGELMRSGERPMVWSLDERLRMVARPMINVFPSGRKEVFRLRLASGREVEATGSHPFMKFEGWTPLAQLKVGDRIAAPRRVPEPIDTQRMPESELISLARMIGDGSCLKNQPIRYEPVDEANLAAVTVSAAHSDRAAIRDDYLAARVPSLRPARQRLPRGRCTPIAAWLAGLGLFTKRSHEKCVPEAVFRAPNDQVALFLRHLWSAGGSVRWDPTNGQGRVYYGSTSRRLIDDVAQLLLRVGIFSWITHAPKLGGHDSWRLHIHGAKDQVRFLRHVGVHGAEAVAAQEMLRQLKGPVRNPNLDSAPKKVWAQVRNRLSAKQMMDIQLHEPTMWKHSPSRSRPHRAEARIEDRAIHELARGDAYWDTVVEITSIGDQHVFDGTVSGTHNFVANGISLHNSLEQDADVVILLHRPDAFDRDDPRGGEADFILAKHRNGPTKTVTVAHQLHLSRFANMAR

[27] = target: T5, Protein RecA (Mycobacterium tuberculosis, UniProt P9WHJ3); assay: Fluorescence Cell-Free Homogeneous Dose Retest to Identify Inhibitors of RecA-Intein Splicing Activity. [Related pubchem assays (depositor defined):AID2097, AID2223, AID489010, AID492950]; format: functional
T5 sequence (P9WHJ3 whole entry): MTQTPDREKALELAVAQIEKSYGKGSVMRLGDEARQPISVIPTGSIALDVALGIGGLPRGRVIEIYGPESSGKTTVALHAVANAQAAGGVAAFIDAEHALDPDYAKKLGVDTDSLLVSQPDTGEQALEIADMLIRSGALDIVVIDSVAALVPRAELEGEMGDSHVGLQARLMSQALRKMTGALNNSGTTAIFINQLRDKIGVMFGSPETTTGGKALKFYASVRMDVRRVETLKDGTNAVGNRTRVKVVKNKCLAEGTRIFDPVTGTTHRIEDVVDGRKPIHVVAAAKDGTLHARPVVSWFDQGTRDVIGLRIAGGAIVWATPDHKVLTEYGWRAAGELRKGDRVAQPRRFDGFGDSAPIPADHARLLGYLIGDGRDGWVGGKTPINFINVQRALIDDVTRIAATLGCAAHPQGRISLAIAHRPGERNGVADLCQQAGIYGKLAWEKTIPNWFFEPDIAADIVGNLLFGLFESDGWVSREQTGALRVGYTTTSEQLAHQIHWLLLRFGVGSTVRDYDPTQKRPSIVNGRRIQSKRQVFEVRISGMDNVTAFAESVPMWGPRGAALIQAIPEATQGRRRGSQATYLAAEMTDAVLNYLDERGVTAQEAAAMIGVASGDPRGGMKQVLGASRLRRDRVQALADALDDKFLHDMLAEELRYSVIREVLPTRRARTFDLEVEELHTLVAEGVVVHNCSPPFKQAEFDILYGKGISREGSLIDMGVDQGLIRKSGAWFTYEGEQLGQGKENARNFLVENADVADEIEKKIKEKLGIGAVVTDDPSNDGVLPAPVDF

[28] = target: Ras and Rab interactor 1/Tyrosine-protein kinase ABL1 (Homo sapiens, UniProt P00519+Q13671); format: functional;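 further: biochemical TR-FRET dose-response test measuring inhibition of binding between Rin1 and Abl proteins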
Sequence of Ras and Rab interactor 1/Tyrosine-protein kinase ABL1 (P00519 whole entry): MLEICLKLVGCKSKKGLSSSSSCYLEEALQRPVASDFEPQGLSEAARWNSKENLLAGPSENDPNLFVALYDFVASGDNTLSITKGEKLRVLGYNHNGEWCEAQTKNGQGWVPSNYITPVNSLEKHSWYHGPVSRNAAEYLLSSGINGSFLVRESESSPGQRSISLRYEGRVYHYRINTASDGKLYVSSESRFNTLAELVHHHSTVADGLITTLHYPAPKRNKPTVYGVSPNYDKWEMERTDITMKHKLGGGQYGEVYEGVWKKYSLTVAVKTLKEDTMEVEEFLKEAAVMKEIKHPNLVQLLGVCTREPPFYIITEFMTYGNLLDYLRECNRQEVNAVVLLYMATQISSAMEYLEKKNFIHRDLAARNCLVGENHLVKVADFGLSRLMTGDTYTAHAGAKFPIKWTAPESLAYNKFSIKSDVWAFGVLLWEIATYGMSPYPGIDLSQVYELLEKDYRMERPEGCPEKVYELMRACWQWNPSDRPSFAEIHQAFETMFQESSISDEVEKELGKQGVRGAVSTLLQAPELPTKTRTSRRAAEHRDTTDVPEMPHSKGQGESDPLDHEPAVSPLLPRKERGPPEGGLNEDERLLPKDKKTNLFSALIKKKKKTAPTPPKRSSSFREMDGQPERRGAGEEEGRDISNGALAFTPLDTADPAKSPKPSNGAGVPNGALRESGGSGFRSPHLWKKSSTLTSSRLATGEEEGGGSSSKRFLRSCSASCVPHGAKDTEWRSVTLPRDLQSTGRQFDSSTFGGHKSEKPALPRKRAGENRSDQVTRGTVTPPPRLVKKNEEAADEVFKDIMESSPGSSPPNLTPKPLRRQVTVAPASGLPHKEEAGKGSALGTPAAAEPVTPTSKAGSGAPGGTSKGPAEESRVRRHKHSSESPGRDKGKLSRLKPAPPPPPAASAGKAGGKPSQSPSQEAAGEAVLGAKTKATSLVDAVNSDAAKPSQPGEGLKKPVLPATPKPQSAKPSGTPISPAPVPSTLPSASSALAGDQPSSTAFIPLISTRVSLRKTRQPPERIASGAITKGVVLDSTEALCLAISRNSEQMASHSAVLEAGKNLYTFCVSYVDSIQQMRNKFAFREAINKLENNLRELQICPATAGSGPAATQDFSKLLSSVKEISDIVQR
Sequence of Ras and Rab interactor 1/Tyrosine-protein kinase ABL1 (Q13671 whole entry): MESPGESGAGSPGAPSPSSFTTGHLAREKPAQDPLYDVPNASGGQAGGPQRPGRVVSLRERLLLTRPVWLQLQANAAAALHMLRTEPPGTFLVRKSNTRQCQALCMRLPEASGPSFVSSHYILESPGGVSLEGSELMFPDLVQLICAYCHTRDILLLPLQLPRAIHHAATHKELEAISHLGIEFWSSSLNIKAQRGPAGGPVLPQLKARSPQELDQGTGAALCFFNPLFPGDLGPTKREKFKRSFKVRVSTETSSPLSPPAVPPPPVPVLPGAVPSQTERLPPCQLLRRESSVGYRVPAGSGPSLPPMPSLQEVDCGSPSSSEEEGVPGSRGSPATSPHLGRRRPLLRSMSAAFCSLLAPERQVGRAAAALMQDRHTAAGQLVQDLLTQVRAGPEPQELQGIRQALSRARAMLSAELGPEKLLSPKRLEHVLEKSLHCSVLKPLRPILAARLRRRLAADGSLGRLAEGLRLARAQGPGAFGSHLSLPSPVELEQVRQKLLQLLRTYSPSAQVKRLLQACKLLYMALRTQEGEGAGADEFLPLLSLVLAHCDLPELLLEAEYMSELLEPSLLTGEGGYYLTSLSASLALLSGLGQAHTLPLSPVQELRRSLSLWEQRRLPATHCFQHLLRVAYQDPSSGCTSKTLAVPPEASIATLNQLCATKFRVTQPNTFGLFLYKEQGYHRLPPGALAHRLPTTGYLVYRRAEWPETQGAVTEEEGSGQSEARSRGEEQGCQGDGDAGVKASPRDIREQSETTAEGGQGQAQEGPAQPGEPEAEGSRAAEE

T3 sequence (P63165 whole entry): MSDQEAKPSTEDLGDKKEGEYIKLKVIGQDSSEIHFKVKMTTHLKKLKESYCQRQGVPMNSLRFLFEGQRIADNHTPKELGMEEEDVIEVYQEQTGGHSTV
Sequence of Galanin receptor type 3 (O60755 whole entry): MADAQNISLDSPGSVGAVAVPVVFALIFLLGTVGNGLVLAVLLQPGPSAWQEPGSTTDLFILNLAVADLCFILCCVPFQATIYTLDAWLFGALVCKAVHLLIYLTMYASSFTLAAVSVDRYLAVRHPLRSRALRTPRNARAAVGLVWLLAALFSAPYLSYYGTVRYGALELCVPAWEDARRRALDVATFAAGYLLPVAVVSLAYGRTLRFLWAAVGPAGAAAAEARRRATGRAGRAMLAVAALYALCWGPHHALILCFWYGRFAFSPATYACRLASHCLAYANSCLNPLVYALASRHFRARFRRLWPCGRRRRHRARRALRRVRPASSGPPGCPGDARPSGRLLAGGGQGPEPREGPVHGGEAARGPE
Sequence of DNA dC->dU-editing enzyme APOBEC-3A (P31941 whole entry): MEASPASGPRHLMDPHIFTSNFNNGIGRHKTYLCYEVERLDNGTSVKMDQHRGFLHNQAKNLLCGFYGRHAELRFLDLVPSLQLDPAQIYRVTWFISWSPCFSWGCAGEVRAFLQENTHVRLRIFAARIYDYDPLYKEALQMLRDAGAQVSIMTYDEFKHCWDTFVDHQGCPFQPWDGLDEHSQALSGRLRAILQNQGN
Sequence of Hepatocyte nuclear factor 4-alpha (P41235 whole entry, the tested form may be a part): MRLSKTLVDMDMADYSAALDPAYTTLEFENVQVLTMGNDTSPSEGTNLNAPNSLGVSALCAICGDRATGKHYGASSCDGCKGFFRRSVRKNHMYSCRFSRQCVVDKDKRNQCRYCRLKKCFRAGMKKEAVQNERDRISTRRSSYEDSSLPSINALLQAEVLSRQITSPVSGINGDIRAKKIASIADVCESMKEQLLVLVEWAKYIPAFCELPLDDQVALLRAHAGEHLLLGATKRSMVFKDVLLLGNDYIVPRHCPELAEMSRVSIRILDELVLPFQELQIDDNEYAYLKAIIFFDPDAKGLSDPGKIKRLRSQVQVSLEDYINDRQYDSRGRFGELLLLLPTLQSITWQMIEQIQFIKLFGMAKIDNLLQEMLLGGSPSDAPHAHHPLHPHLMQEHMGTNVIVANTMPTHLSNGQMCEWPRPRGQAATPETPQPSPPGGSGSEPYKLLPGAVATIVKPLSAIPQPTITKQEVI
Sequence of DNA dC->dU-editing enzyme APOBEC-3G (Q9HC16 whole entry): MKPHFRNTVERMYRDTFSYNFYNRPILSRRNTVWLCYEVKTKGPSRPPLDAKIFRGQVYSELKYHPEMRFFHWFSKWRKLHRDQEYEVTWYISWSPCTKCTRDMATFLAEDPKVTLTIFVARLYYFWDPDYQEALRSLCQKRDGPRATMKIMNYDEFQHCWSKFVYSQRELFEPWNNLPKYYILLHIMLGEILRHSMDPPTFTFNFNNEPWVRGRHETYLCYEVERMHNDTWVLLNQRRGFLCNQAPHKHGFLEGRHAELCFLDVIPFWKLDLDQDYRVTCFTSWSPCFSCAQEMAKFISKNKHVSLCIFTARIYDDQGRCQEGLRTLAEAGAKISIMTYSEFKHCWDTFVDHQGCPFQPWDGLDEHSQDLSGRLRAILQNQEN
Sequence of Melanocortin receptor 4 (P32245 whole entry): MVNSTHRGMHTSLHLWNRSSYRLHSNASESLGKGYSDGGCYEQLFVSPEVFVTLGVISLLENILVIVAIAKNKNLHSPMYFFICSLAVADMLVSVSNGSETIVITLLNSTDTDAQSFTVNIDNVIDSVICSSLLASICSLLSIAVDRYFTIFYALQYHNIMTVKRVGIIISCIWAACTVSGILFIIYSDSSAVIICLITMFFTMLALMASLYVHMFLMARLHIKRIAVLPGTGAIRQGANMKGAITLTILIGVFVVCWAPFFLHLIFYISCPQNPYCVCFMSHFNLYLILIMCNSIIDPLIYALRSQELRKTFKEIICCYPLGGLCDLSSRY
Sequence of Paired box protein Pax-8 (Q06710 whole entry): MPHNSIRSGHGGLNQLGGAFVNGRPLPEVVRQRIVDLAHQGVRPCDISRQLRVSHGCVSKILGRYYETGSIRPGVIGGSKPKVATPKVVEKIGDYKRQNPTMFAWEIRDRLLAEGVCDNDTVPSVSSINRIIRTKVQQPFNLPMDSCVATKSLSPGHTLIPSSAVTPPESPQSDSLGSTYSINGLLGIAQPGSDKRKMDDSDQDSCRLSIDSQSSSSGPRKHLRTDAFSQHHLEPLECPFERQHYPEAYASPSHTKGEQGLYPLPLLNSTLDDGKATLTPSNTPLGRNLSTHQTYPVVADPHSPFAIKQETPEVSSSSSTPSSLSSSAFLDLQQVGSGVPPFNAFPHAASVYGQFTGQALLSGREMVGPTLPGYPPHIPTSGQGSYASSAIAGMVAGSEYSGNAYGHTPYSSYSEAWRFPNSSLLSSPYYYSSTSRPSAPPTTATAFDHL

## COc1cc(C(C)=O)ccc1OCc1cn(CC(=O)c2ccc(O)cc2)nn1
[1]
  IC50: 5.85 µM (active)

## O=C(O)c1cnn(-c2nc(-c3ccc(Cl)c(Cl)c3)cs2)c1C(F)(F)F
[2]
  IC50: 5 µM (active)
[3]
  IC50: 13.2 µM (active)
[4]
  EC50: 43.4 µM (active)
[5]
  IC50: > 64.6 µM (inactive)
[6]
  IC50: 11 µM (active)

## COc1ccc(C=C2CCc3ccccc3C2=O)cc1
[7]
  IC50: > 67.6 µM (inactive)
[8]
  IC50: > 67.6 µM (inactive)

## N#Cc1cc(-c2ccccc2)oc1NC(=O)c1ccco1
[9]
  IC50: 8.23 µM (active)
[10]
  EC50: > 29.9 µM (inactive)

## COc1ccc2cc(Br)c(=O)oc2c1
[11]
  IC50: > 100 µM (inactive)
[12]
  IC50: > 100 µM (inactive)

## Cc1ccc(S(=O)(=O)N(C)C[C@@H]2Oc3ccc(NC(=O)Nc4ccc(C(F)(F)F)cc4)cc3CC(=O)N([C@@H](C)CO)C[C@@H]2C)cc1
[13]
  AC50: 799 nM (active)
[14]
  AC50: 483 nM (active)
[15]
  AC50: 3.88 µM (active)
[16]
  AC50: 584 nM (active)
[17]
  AC50: 1.16 µM (active)
[18]
  AC50: 5.91 µM (active)

## CC(C)(C)NC(=O)COC(=O)c1snc(C(=O)NC2CCCCC2)c1N
[19]
  CC50: > 40 µM (active)
[20]
  IC50: 4.33 µM (active)
[9]
  IC50: 1.95 µM (active)
[10]
  EC50: > 29.9 µM (inactive)

## Cc1cccc(NN=C(S)Nc2c(C)cccc2C)c1
[21]
  IC50: > 122 µM (inactive)

## CCn1c(S)nnc1-c1cc2c(C(F)(F)F)nn(C)c2s1
[22]
  IC50: > 100 µM (inactive)
[23]
  IC50: 3.06 µM (active)
[21]
  IC50: > 122 µM (inactive)

## CCCCCC(=O)Nc1nc(C)c(-c2csc(Nc3cc(Cl)ccc3C)n2)s1
[24]
  IC50: > 66.6 µM (inactive)
[25]
  IC50: 10.7 µM (active)

## COc1ccc(OC)c(NC(=O)Cc2ccc(NC3=NC4CS(=O)(=O)CC4S3)cc2)c1 (centres undefined)
[26]
  AC50: > 380 µM (inactive)
[27]
  EC50: > 380 µM (inactive)
[28]
  IC50: 14.1 µM (inactive)

## COC(=O)c1ccc(COC(=O)c2ccc(-n3cnnn3)cc2)o1
[28]
  IC50: 21.1 µM (inactive)

## CCOc1cn(C)c(C(=O)Nc2ccccc2)cc1=O
[11]
  IC50: > 100 µM (inactive)
[12]
  IC50: > 100 µM (inactive)
